Experimental data from US11166940B2, “Treatment of cardiac disorders by blocking SK4 potassium channel” (Ramot at Tel-Aviv University Ltd., priority 2016, dated 2021).

Experiments:
If and INCX currents = conditions: 5 μM TRAM-34; cited from earlier work
[1] = test system: intact SAN from CASQ2 D307H KI mice; experiment: Spontaneous calcium transients ex vivo in intact SAN tissue from CASQ2-D307H KI mice (Fluo-4 AM); assay type: cell-based, mouse; conditions: 2 μM TRAM-34 added to 100 nM isoproterenol
Procedure: (§1) SAN tissue preparations were dissected ex vivo from WT and CASQ2-D307H KI mice as described in Torrente, A. G., et al. Proc Natl Acad Sci USA 112, 9769-9774 (2015). The dissected whole SAN tissue was pinned on a hand-made chamber and was incubated in a Tyrode solution containing 10 μM Fluo-4 AM (Thermo Fisher Scientific) and pluronic acid for 1 hour at 37° C. in the dark. The SAN tissue was washed in Tyrode at 37° C. in the dark for 10 minutes before experiments. Fluorescence of calcium transients was recorded using a photomultiplier (PTi D-104) at 35° C. and the analog signals were digitized using Digidata 1440 (Molecular Devices) and analyzed with pCLAMP 10.5 software.
(§2) To investigate the spontaneous calcium transients of the SAN, intact SAN tissue preparations dissected ex vivo from WT and CASQ2-D307H KI mice were exposed to Fluo-4 AM as previously described [Torrente, A. G., et al. Proc Natl Acad Sci USA 112, 9769-9774 (2015)].
FIG. 6B presents representative traces of different types of calcium transient abnormalities recorded in intact SAN from CASQ2 D307H KI mice, termed as “local Ca^2+ release” (upper left), “double humped transients” (upper right), “large-stored released Ca^2+ waves” (lower left) and “calcium alternans” (lower right).
FIG. 6C presents representative trace of spontaneous calcium transients recorded from intact SAN of CASQ2 D307H KI. The baseline rate of calcium transients (control, black trace) yielded chaotic calcium transients (red trace) following incubation of the SAN with 100 nM isoproterenol.

[2] = test system: intact SAN tissue preparations from WT mice; experiment: Spontaneous calcium transients ex vivo in intact SAN tissue from WT mice (Fluo-4 AM); assay type: cell-based, mouse; conditions: 2 μM TRAM-34 in presence of 100 nM isoproterenol
Procedure: as §1, §2
FIG. 6A (Left) presents representative traces of spontaneous calcium transients recorded ex vivo in intact SAN tissue preparations from WT mice. […] Right: data summary of calcium transient rate (one-way-ANOVA***P=0.0003; n=12).

WT mice = experiment: In vivo telemetric ECG recording in WT (normal) mice; set-up: species or system mouse; conditions: 20 mg/kg IP, WT mice at rest
Excerpt: Telemetric ambulatory long-term ECG recordings, analogous to Holter monitoring in humans, were obtained with implantable transmitters. […] An implantable 3.5 grams wireless radiofrequency transmitter (DSI MM USA, device weight 3.8 grams) was aseptically inserted into a subcutaneous tissue pocket in the back as described in Katz, G., et al. Heart Rhythm 7, 1676-1682 (2010) and Kurtzwald-Josefson, E., et al. Heart Rhythm 11, 1471-1479 (2014)]. Animals were allowed to recover after surgery for at least 24 hours before any experiments. Baseline electrocardiograms (ECG) were obtained 15 minutes after IP injection of the appropriate vehicle (peanut oil or peanut oil supplemented with ethanol 1%). […] Telemetered ECG tracings were obtained in conscious mice at rest for one minute and during peak exercise (i.e. the first minute of recovery). In the treadmill exercise, mice were forced to exercise on a rodent treadmill; gradually increasing the speed up to a maximum of 15 m/minute. Ventricular tachycardia (VT) was defined as four or more consecutive ventricular beats. If this phenotype was consecutively observed for more than 15 seconds, it was defined as “sustained” ventricular tachycardia (SVT). Shorter VTs were characterized as “non-sustained” (NSVT). All other ventricular arrhythmias, such as premature beats, ventricular bigeminy, couplets and triplets were all defined as ventricular premature contractions (VPCs).
(§3) For this, a heart telemetry device was implanted in norma mice for continuous ECG recording at rest and during treadmill exercise. For each session, continuous ECG recording was performed with the same animals receiving first intraperitoneal (IP) injection of vehicle (peanut oil) and then 20 mg/kg clotrimazole.
as §3, with “A” for “For this, a”, “WT, CASQ2-D307H KI and CASQ2 KO” for “norma”, “the SK4 channel blocker.” for “20 mg/kg clotrimazole.”

[3] = test system: T type and L-type Ca2+ currents; experiment: Selectivity: voltage-ramp protocol in hESC-CMs, zero free Ca2+ in pipet; assay type: cell-based, human; conditions: 5 μM TRAM-34; zero free Ca2+ in pipet solution; n=7
Procedure: The experiments were performed in zero free Ca2+ in the pipet solution.

For Clc1ccccc1C(c1ccccc1)(c1ccccc1)n1cccn1 [TRAM-34, 1-[(2-chlorophenyl)diphenylmethyl]-1H-pyrazole], the “If and INCX currents” value (If and INCX currents) is given as “unaffected”, the “number of SANs displaying double humped transients or large-stored released Ca2+ waves” value [1] is given as “zero” and the “shapes of isoproterenol induced aberrant calcium waves” value [1] is given as “normalized the shapes of isoproterenol induced aberrant calcium waves”. For the same compound, the “pattern of the Ca2+ waves” value [2] was “did not alter the pattern of the Ca^2+ waves”, the “prolongation of the PR interval” value (WT mice) was 20% and the “reduction of resting heart rate” value (WT mice; vs vehicle in same animal) was 16±3%. The “T type and L type Ca2+ currents (two inward humps)” value [3] was “does not alter the voltage-gated Ca2+ currents”.
